Assay results published in patent publication US20100249302A1, “LIQUID COMPOSITION CONTAINING PERFLUORO-CHLOROETHER SOLVENT” (FUJIFILM CORPORATION, priority 2009, published 2010).

How the values were obtained:
[1] = Solubility of coating-composition components in FC-72 (comparative coating examples); settings: label = solute, solvent = FC-72; coating composition preparation
[2] = Measurement of solubility of compound (17) (fluorine-free organic compound) in fluorine-containing solvents; settings: Table 1; solute compound (17) dissolved in the solvent
Method: The resulting solution is diluted with deutrochloroform, followed by measuring ^1H-NMR.

[3] = Solubility of FC-72 (perfluorohexane) in the fluorine-containing solvents; format: physicochemical; settings: for Solubility (% by weight) FC-72 (Fluorine Content: 79% by weight): Table 1, solute FC-72 dissolved in the solvent; for ability of the solvent to dissolve FC-72: label = solvent, solute = FC-72

Structure (SMILES)	solubility in FC-72 [1]	Solubility (% by weight) Compound (17) (Fluorine Content: 0% by weight) [2]	Solubility (% by weight) FC-72 (Fluorine Content: 79% by weight) [3]	ability of the solvent to dissolve FC-72 [3]	Solubility (% by weight) FC-72 [3]
OCC(F)(F)C(F)(F)C(F)(F)C(F)(F)C(F)(F)C(F)(F)C(F)(F)C(F)(F)CO [1H,1H,10H,10H-hexadecafluoro-1,10-decanediol]	not completely soluble	–	–	–	–
CCO[Si](CCCN=C=O)(OCC)OCC [3-(triethoxysilyl)propyl isocyanate]	not completely soluble	–	–	–	–
FC(F)(Cl)C(F)(F)OC(F)(Cl)C(Cl)(Cl)Cl (stereo not shown) [Compound (2)]	–	soluble in any	soluble in any	can dissolve FC-72 in any proportion	–
FC(F)(Cl)C(F)(F)OC(F)(Cl)C(F)(Cl)Cl (stereo not shown) [Compound (2′)]	–	–	–	can dissolve FC-72 in any proportion	soluble in any
FC(F)(Cl)C(F)(OC(F)(Cl)C(Cl)(Cl)Cl)C(F)(F)Cl (stereo not shown) [Compound (3)]	–	soluble in any	soluble in any	can dissolve FC-72 in any proportion	–
FC(Cl)(Cl)C(F)(F)OC(F)(Cl)C(F)(Cl)Cl (stereo not shown) [Compound (3′)]	–	–	–	can dissolve FC-72 in any proportion	soluble in any
FC(Cl)(Cl)C(F)(F)OC(F)(Cl)C(Cl)(Cl)Cl (stereo not shown) [Compound (4)]	–	soluble in any	soluble in any	can dissolve FC-72 in any proportion	–
FC(Cl)(Cl)C(F)(Cl)OC(F)(F)C(Cl)(Cl)Cl (stereo not shown) [Compound (4′)]	–	–	–	can dissolve FC-72 in any proportion	soluble in any
FC(F)(OC(F)(Cl)C(Cl)(Cl)Cl)C(Cl)(Cl)Cl (stereo not shown) [Compound (5)]	–	soluble in any	soluble in any	can dissolve FC-72 in any proportion	–
FC(F)(Cl)C(F)(OC(F)(Cl)C(F)(Cl)Cl)C(F)(F)Cl (stereo not shown) [Compound (5′)]	–	–	–	can dissolve FC-72 in any proportion	soluble in any
